From patent publication EP4670719A1, “PHARMACEUTICAL COMPOSITION OF BENZO NITROGEN HETEROAROMATIC RING DERIVATIVE AND USE THEREOF IN MEDICINE” (Haisco Pharmaceutical Group Co., Ltd., priority 2023, dated 2024)

How the values were obtained:
[1] = i.g. (10 mg/kg)
[2] = test system: complement alternative pathway; assay: Test of inhibitory effect on the complement alternative pathway (IBL alternative pathway kit, LPS-coated plate); type: biochemical, healthy volunteers; settings: inhibiting the alternative pathway; diluted serum, 30 min pretreatment, 1 h at 37°C
Protocol: The inhibitory effect of the compounds on the complement alternative pathway was detected using the IBL alternative pathway kit (COMPL AP330 RUO). Serum from healthy volunteers was collected and 1 portion was diluted with a buffer of 20 mM EDTA in gelatin (0.15 mM CaCl2, 141 mM NaCl, 4.5 mM MgCl2, 4.2 mM HEPES, and 0.1% gelatin at pH 7.4) to 50% (v/v), and 1 portion was diluted to 50% (v/v) with a buffer of 20 mM EGTA in gelatin. The compounds were prepared in DMSO to a working solution 100 times the final concentration. Before use, 50% of the above serum was diluted 1/18 with an AP diluent in the kit. 1 part of the compound working solution (v/v) or DMSO (positive control PC) was added to 99 parts of the diluted serum containing EGTA for pretreatment for 30 min, and 1 part of DMSO (v/v) was added to 99 parts of the diluted serum containing EDTA, as negative control (NC). The serum pretreated with the above compounds (or DMSO) was added at […] to an LPS-coated 96-well plate and incubated at 37°C for 1 h, and the plate was washed 3 times with washing solution in the kit, and the conjugated chromogenic substrate was added according to the instruction in the kit, and the absorbance was read at 405 nm with a microplate reader. The inhibitory activity of the compounds on alternative pathway was calculated using the following formula. […]

Row | AUC0-24 h ([1]; rat plasma) [ng·h/mL] | Cmax ([1]; rat plasma) [ng/mL] | T1/2 ([1]; rat plasma) [h] | Tmax ([1]; rat plasma) [h] | F% ([1]; rats) [%] | SMILES | IC50 [2] [nM]
1 | 9867 | 867 | 3.39 | 3.5 | 49 | CCO[C@H]1CCN(Cc2c(OC)cc(C)c3[nH]ccc23)[C@H](c2ccc(C(=O)O)cc2)C1 [LNP023] | 
2 |  |  |  |  |  | [2H]C([2H])([2H])Oc1cc(C)c2[nH]ccc2c1CN1CC[C@@H](C2CC2)C[C@H]1c1ccc(C(=O)O)cc1 [Trifluoroacetate of compound 1] | < 200
3 |  |  |  |  |  | COc1cc(C)c2[nH]ccc2c1CN1CC[C@@H](C2CC2)C[C@H]1c1ccc(C(=O)O)cc1 [Trifluoroacetate of compound 2] | < 200
